Laboratory results from US9833497B2, “Human originated EGF domain proteins and use of the same” (CHENGDU SOURCEBIO LIMITED-LIABILITY COMPANY, priority 2013, dated 2017).

Tests used:
Assay type in all cases: cell-based
[1] = test system: E. coli BL21; assay: MIC against Gram-negative bacteria: E. coli BL21
How it was run: (§1)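 Two-fold serial dilutions of each purified human EGF domain protein, three replicate wells per level, were combined with bacteria at a final 5×10^5 CFU/mL in LB. Cultures were shaken at 175 rpm, 37° C. The MIC was taken as the minimum concentration preventing growth.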

[2] = test system: Enterobacter cloacae; assay: MIC against Gram-negative bacteria: Enterobacter cloacae; details: for MIC (μg/mL) E. cloacae / MIC: E. cloacae
How it was run: as §1

[3] = test system: Aeromonas hydrophila; assay: MIC against Gram-negative bacteria: Aeromonas hydrophila; details: for MIC (μg/mL) A. hydrophila / MIC: A. hydrophila
How it was run: as §1

[4] = test system: Proteus mirabilis; assay: MIC against Gram-negative bacteria: Proteus mirabilis; details: for MIC (μg/mL) P. mirabilis / MIC: P. mirabilis
How it was run: as §1

[5] = test system: Moraxella catarrhalis; assay: MIC against Gram-negative bacteria: Moraxella catarrhalis; details: for MIC (μg/mL) M. catarrhalis / MIC: M. catarrhalis
How it was run: as §1

[6] = test system: Proteus vulgaris; assay: MIC against Gram-negative bacteria: Proteus vulgaris; details: for MIC (μg/mL) P. vulgaris / MIC: P. vulgaris
How it was run: as §1

[7] = test system: Citrobacter diversus; assay: MIC against Gram-negative bacteria: Citrobacter diversus; details: for MIC (μg/mL) C. diversus / MIC: C. diversus
How it was run: as §1

[8] = test system: Serratia marcescens; assay: MIC against Gram-negative bacteria: Serratia marcescens; details: for MIC (μg/mL) S. marcescens / MIC: S. marcescens
How it was run: as §1

[9] = test system: E. coli DH5α; assay: Antibacterial activity: MIC and growth curve against E. coli DH5α in 96-well plate; details: minimal inhibitory concentration against E. coli DH5α; 96-well plate, 5×10^5 CFU/mL, 37° C., judged after 8 h
How it was run: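 Log-phase DH5α (OD600 about 0.5, 37° C, 185 rpm in LB) was pelleted, resuspended in fresh LB and seeded at 5×10^5 CFU/mL with recombinant protein at 50, 25 and 12.5 μg/mL (two-fold series), in triplicate. Plates were shaken at 175 rpm, 37° C, and OD600 was read every 30 min. MIC was the lowest concentration with no growth.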

[10] = test system: Klebsiella pneumonia; assay: MIC against Gram-negative bacteria: Klebsiella pneumonia; details: for MIC (μg/mL) K. pneumonia / MIC: K. pneumonia
How it was run: as §1

[11] = test system: Pseudomonas aeruginosa; assay: MIC against Gram-negative bacteria: Pseudomonas aeruginosa; details: for MIC (μg/mL) P. aeruginosa / MIC: P. aeruginosa
How it was run: as §1

[12] = E. coli BL21, 10 h cultivation at 37° C., 5×10^5 CFU/mL
[13] = 10 h cultivation at 37° C., 5×10^5 CFU/mL
[14] = E. coli BL21, 10 h cultivation at 37° C.
[15] = E. coli BL21, 96-well plate, 5×10^5 CFU/mL, 37° C., 10 h
[16] = Enterobacter cloacae, 96-well plate, 5×10^5 CFU/mL, 37° C., 10 h
[17] = Aeromonas hydrophila, 96-well plate, 5×10^5 CFU/mL, 37° C., 10 h
[18] = Proteus mirabilis, 96-well plate, 5×10^5 CFU/mL, 37° C., 10 h
[19] = Moraxella catarrhalis, 96-well plate, 5×10^5 CFU/mL, 37° C., 10 h
[20] = Proteus vulgaris, 96-well plate, 5×10^5 CFU/mL, 37° C., 10 h
[21] = Citrobacter diversus, 96-well plate, 5×10^5 CFU/mL, 37° C., 10 h
[22] = Serratia marcescens, 96-well plate, 5×10^5 CFU/mL, 37° C., 10 h
[23] = Klebsiella pneumonia, 96-well plate, 5×10^5 CFU/mL, 37° C., 10 h
[24] = Pseudomonas aeruginosa, 96-well plate, 5×10^5 CFU/mL, 37° C., 10 h
[25] = 96-well plate, 5×10^5 CFU/mL, 37° C., 10 h

## PRT197 (LGYDCTTDKCNDRGVCNNKKHCHCSASYLPPDCS; listed as Homo sapiens)
[1]; [12]
  MIC (μg/mL) E. coli BL21: 12.5 µg/mL
[2]; [13]
  MIC (μg/mL) E. cloacae: 50 µg/mL
[3]; [13]
  MIC (μg/mL) A. hydrophila: 12.5 µg/mL
[4]; [13]
  MIC (μg/mL) P. mirabilis: 12.5 µg/mL
[5]; [13]
  MIC (μg/mL) M. catarrhalis: 12.5 µg/mL
[6]; [13]
  MIC (μg/mL) P. vulgaris: 12.5 µg/mL
[7]; [13]
  MIC (μg/mL) C. diversus: 12.5 µg/mL
[8]; [13]
  MIC (μg/mL) S. marcescens: 12.5 µg/mL
[9]
  MIC: 50 µg/mL
[10]; [13]
  MIC (μg/mL) K. pneumonia: 12.5 µg/mL
[11]; [13]
  MIC (μg/mL) P. aeruginosa: 50 µg/mL

## PRT912 (DVNECLSNPCDARGTQNCVQRVNDFHCECRAGHTGRRCE; listed as Homo sapiens)
[1]; [14]
  MIC: 12.5 µg/mL
[2]; 10 h cultivation at 37° C.
  MIC: 25 µg/mL
[3]; 10 h cultivation at 37° C.
  MIC: 100 µg/mL
[4]; 10 h cultivation at 37° C.
  MIC: 50 µg/mL
[5]; 10 h cultivation at 37° C.
  MIC: 12.5 µg/mL
[6]; 10 h cultivation at 37° C.
  MIC: 100 µg/mL
[7]; 10 h cultivation at 37° C.
  MIC: 50 µg/mL
[8]; 10 h cultivation at 37° C.
  MIC: 50 µg/mL
[9]
  MIC: 25 µg/mL
[10]; 10 h cultivation at 37° C.
  MIC: 50 µg/mL
[11]; 10 h cultivation at 37° C.
  MIC: 25 µg/mL

## PRT1327 (EINPCLENHGGCDKNAECTQTGPNQAACNCLPAYTGDGKVCT; listed as Homo sapiens)
[1]; [15]
  MIC against E. coli BL21: 12.5 µg/mL
[2]; [16]
  MIC against E. cloacae: 50 µg/mL
[3]; [17]
  MIC against A. hydrophila: 12.5 µg/mL
[4]; [18]
  MIC against P. mirabilis: 12.5 µg/mL
[5]; [19]
  MIC against M. catarrhalis: 12.5 µg/mL
[6]; [20]
  MIC against P. vulgaris: 12.5 µg/mL
[7]; [21]
  MIC against C. diversus: 12.5 µg/mL
[8]; [22]
  MIC against S. marcescens: 25 µg/mL
[9]
  MIC: 25 µg/mL
[10]; [23]
  MIC against K. pneumonia: 12.5 µg/mL
[11]; [24]
  MIC against P. aeruginosa: 50 µg/mL

## PRT546 (CDCHEAGTAPGVCDPLTGQCYCKENVQGPKCDQCSLGTFSLDAANPKGCTR; listed as Homo sapiens)
[1]; [25]
  MIC against E. coli BL21: 50 µg/mL
[2]; [25]
  MIC against E. cloacae: 12.5 µg/mL
[3]; [25]
  MIC against A. hydrophila: 50 µg/mL
[4]; [25]
  MIC against P. mirabilis: 12.5 µg/mL
[5]; [25]
  MIC against M. catarrhalis: 50 µg/mL
[6]; [25]
  MIC against P. vulgaris: 25 µg/mL
[7]; [25]
  MIC against C. diversus: 12.5 µg/mL
[8]; [25]
  MIC against S. marcescens: 50 µg/mL
[9]
  MIC: 12.5 µg/mL
[10]; [25]
  MIC against K. pneumonia: 50 µg/mL
[11]; [25]
  MIC against P. aeruginosa: 12.5 µg/mL

## PRT1316 (ELPVCQELRCPQNTQCSAEAPSCRCLPGYTQQGSE; listed as Homo sapiens)
[1]; [15]
  MIC against E. coli BL21: 12.5 µg/mL
[2]; [16]
  MIC against E. cloacae: 12.5 µg/mL
[3]; [17]
  MIC against A. hydrophila: 50 µg/mL
[4]; [18]
  MIC against P. mirabilis: 12.5 µg/mL
[5]; [19]
  MIC against M. catarrhalis: 50 µg/mL
[6]; [20]
  MIC against P. vulgaris: 50 µg/mL
[7]; [21]
  MIC against C. diversus: 12.5 µg/mL
[8]; [22]
  MIC against S. marcescens: 12.5 µg/mL
[9]
  MIC: 50 µg/mL
[10]; [23]
  MIC against K. pneumonia: 25 µg/mL
[11]; [24]
  MIC against P. aeruginosa: 50 µg/mL

## PRT951 (WTDACLSHPCANGSTCTTVANQFSCKCLTGFTGQKCE; listed as Homo sapiens)
[1]; [14]
  MIC: 25 µg/mL
[2]; 10 h cultivation at 37° C.
  MIC: 12.5 µg/mL
[3]; 10 h cultivation at 37° C.
  MIC: 12.5 µg/mL
[4]; 10 h cultivation at 37° C.
  MIC: 25 µg/mL
[5]; 10 h cultivation at 37° C.
  MIC: 12.5 µg/mL
[6]; 10 h cultivation at 37° C.
  MIC: 50 µg/mL
[7]; 10 h cultivation at 37° C.
  MIC: 25 µg/mL
[8]; 10 h cultivation at 37° C.
  MIC: 100 µg/mL
[9]
  MIC: 25 µg/mL
[10]; 10 h cultivation at 37° C.
  MIC: 25 µg/mL
[11]; 10 h cultivation at 37° C.
  MIC: 25 µg/mL

## PRT1482 (LCSFGCGSGICIAPNVCSCQDGEQGATCP; listed as Homo sapiens)
[1]; E. coli BL21, 5×10^5 CFU/mL, 10 h cultivation at 37° C.
  MIC against E. coli BL21: 50 µg/mL
[2]; Enterobacter cloacae, 5×10^5 CFU/mL, 10 h cultivation at 37° C.
  MIC against E. cloacae: 12.5 µg/mL
[3]; Aeromonas hydrophila, 5×10^5 CFU/mL, 10 h cultivation at 37° C.
  MIC against A. hydrophila: 50 µg/mL
[4]; Proteus mirabilis, 5×10^5 CFU/mL, 10 h cultivation at 37° C.
  MIC against P. mirabilis: 50 µg/mL
[5]; Moraxella catarrhalis, 5×10^5 CFU/mL, 10 h cultivation at 37° C.
  MIC against M. catarrhalis: 25 µg/mL
[6]; Proteus vulgaris, 5×10^5 CFU/mL, 10 h cultivation at 37° C.
  MIC against P. vulgaris: 25 µg/mL
[7]; Citrobacter diversus, 5×10^5 CFU/mL, 10 h cultivation at 37° C.
  MIC against C. diversus: 12.5 µg/mL
[8]; Serratia marcescens, 5×10^5 CFU/mL, 10 h cultivation at 37° C.
  MIC against S. marcescens: 25 µg/mL
[9]
  MIC: 12.5 µg/mL
[10]; Klebsiella pneumonia, 5×10^5 CFU/mL, 10 h cultivation at 37° C.
  MIC against K. pneumonia: 50 µg/mL
[11]; Pseudomonas aeruginosa, 5×10^5 CFU/mL, 10 h cultivation at 37° C.
  MIC against P. aeruginosa: 12.5 µg/mL

## PRT855 (DVDECATGRASCPRFRQCVNTFGSYICKCHKGFDLMYIGGKYQCH; listed as Homo sapiens)
[1]; [12]
  MIC (μg/mL) E. coli BL21: 12.5 µg/mL
[2]; [13]
  MIC (μg/mL) E. cloacae: 12.5 µg/mL
[3]; [13]
  MIC (μg/mL) A. hydrophila: 50 µg/mL
[4]; [13]
  MIC (μg/mL) P. mirabilis: 12.5 µg/mL
[5]; [13]
  MIC (μg/mL) M. catarrhalis: 12.5 µg/mL
[6]; [13]
  MIC (μg/mL) P. vulgaris: 12.5 µg/mL
[7]; [13]
  MIC (μg/mL) C. diversus: 12.5 µg/mL
[8]; [13]
  MIC (μg/mL) S. marcescens: 12.5 µg/mL
[9]
  MIC: 50 µg/mL
[10]; [13]
  MIC (μg/mL) K. pneumonia: 25 µg/mL
[11]; [13]
  MIC (μg/mL) P. aeruginosa: 50 µg/mL

## PRT421 (DQDECLLLPGELCQHLCINTVGSYHCACFPGFSLQDDGRTCR; listed as Homo sapiens)
[1]; [12]
  MIC: 50 µg/mL
[2]; [13]
  MIC: 12.5 µg/mL
[3]; [13]
  MIC: 50 µg/mL
[4]; [13]
  MIC: 25 µg/mL
[5]; [13]
  MIC: 50 µg/mL
[6]; [13]
  MIC: 12.5 µg/mL
[7]; [13]
  MIC: 12.5 µg/mL
[8]; [13]
  MIC: 25 µg/mL
[9]
  MIC: 12.5 µg/mL
[10]; [13]
  MIC: 50 µg/mL
[11]; [13]
  MIC: 12.5 µg/mL

## PRT962 (NVDDCSPDPCHHGRCVDGIASFSCACAPGYTGTRCE; listed as Homo sapiens)
[1]; [14]
  MIC: 50 µg/mL
[2]; 10 h cultivation at 37° C.
  MIC: 25 µg/mL
[3]; 10 h cultivation at 37° C.
  MIC: 50 µg/mL
[4]; 10 h cultivation at 37° C.
  MIC: 50 µg/mL
[5]; 10 h cultivation at 37° C.
  MIC: 25 µg/mL
[6]; 10 h cultivation at 37° C.
  MIC: 12.5 µg/mL
[7]; 10 h cultivation at 37° C.
  MIC: 12.5 µg/mL
[8]; 10 h cultivation at 37° C.
  MIC: 25 µg/mL
[9]
  MIC: 25 µg/mL
[10]; 10 h cultivation at 37° C.
  MIC: 12.5 µg/mL
[11]; 10 h cultivation at 37° C.
  MIC: 25 µg/mL
